The values below come from article PMC12037037 (Proceedings of the National Academy of Sciences of the …, 2025).

For assay [1], the target named is psychLight S242A^5.46 (murinized variant) (Homo sapiens, UniProt P28223, S242A). The assay is described as follows: PsychLight assay, S242A^5.46 mutant. Format: cell-based.
Method: PsychLight Assays. Psychlight assays were performed using a previously published method (15) with slight modifications.
Briefly, a solution of PSYLI2 cells suspended in DMEM containing 10% FBS with 5% penicillin-streptomycin was added to
poly-D-lysine-coated glass bottom 96-well plates. The cells were plated at a density of 60,000 cells/well for the inner 60
wells and 90,000 cells/well for the outer 36 wells and incubated at 37°C with 5% CO2 for 18–24 h prior to each experiment.
On the day of each experiment, the DMEM solution was replaced with 100 µL/well Hoechst solution (2 µM in HBSS) and
incubated for 30 min at 37°C with 5% CO2. Plates were then washed 3x 200 µL HBSS and replaced with 160 µL/well of
assay buffer (HBSS with 0.5 mM HEPES buffer, adjusted to pH = 7.4 with 1 M NaOH) and incubated for 30 min (37°C, 5%
CO2). The cells were then imaged on a Thermo Scientific CellInsight CX7 LZR High Content Analysis Platform at 10X
(37°C, 5% CO2). Images from nine regions of interest (ROI) per well were obtained following the default ROI pattern with
no bias to location and no overlap of the ROIs. Baseline images were collected prior to drug addition. Following baseline
imaging, cells were treated with 40 µL of drugs at the indicated concentrations (final solutions contained 0.2% DMSO) and
incubated (37°C, 5% CO2) for 1 h before treatment images were acquired using identical parameters. In the case of
activation was quantified using the built-in Target Validation Assay (version 6.0.1.4021) on the Thermo Scientific HCS Studio
Cellomics data analysis program. Primary objects were identified and validated using the Hoechst stain and secondary
objects (psychLight signal) were defined as signal within 12 pixels of the primary objects. PsychLight signal was calculated
as a ΔF/F according to the following equation:
ΔF = psychLight activation (treatment) − psychLight activation (baseline)
F psychLight activation (baseline)
PsychLight S242A5.46 plasmid construction and transfection. To introduce the serine to alanine mutation in […]
Another assay concerns C57BL/6J mice. The assay is described as follows: Amphetamine-induced locomotion. The assay is classed as in vivo. The following applies: (+)-JRT 1 mg/kg + AMPH 3 mg/kg. How it is done: Figure S11. […] (A) Pretreatment with (+)-JRT (1 mg/kg,
IP) can block AMPH-induced hyperlocomotion in female, but not male, mice. (B) Pretreatment with (+)-JRT (1 mg/kg, IP) […]
AMPH = (+)-amphetamine; PCP = phencyclidine; VEH = vehicle; ns = not significant. *p < 0.05, **p < 0.01, ***p < 0.001, ****p < 0.0001, as compared to the comparator(s) indicated by a horizontal bar. See Methods and SI Appendix, Table S1 for full details on statistics.
(1 picture or pasted object on this page, not shown here)
Amphetamine-Induced Locomotion. The amphetamine-induced hyperlocomotion assay was performed using male and female C57BL/6J mice that were approximately 8 weeks old at the time of the experiments. Animals were first placed in the test arena (40 cm x 40 cm) for 15 min to obtain a basal reading of locomotion and habituate them to the testing arena.
Next, animals were administered (+)-JRT (1 mg/kg) or VEH (2.5 mL/kg, i.p) and placed back in the test arena. After 15 min, the animals were administered (+)-amphetamine (3 mg/kg) or VEH (2.5 mL/kg) and placed back in the test arena for 60 minutes. Locomotion during the entire experiment was quantified using ANYmaze Video Tracking System, version 7.07 (Stoelting Co.). The test arena was cleaned thoroughly with 70% ethanol between trials. […]
Reads were aligned to the GRCm39 genome assembly using STAR, processed with Picard, and counted with the Subread software. Transcript inclusion criteria consisted of a minimum raw expression level of 25 transcripts in a minimum of 4 samples. Surrogate variable analysis was conducted with the sva package 2023 release v3.5.0 in R and normalization and differential expression analysis was performed with DESeq2 v4.3 with a baseMean threshold of 10. Heatmaps were created with the pheatmap v1.0.12 with sample-wise z-scores plotted and both row and column grouping allowed using pearson's distances and ward.D for clustering. Gene-wise selection criteria for heatmaps were a baseMean expression threshold of 50 to focus on robustly expressed genes, p value < 0.05, and presence in the top 250 genes sorted by absolute value of log2FC. Additionally, z score was capped at 2 for visualization purposes. Schizophrenia gene sets were extracted from a recent TWAS study (30).
For Figure S8G, the TWAS set was filtered for FDR < 0.01. Permutation testing was conducted to quantify the overlap of top genes from schizophrenia TWAS with the perm_test function from the bulkWarehouse package 2023 release v1.2.7.
Briefly, the intersection of top differentially expressed genes and top TWAS genes is compared to an empirical distribution created by calculating the intersection with our top DEGs when randomly sampling candidate genes from our dataset equal to the size of the TWAS sample. […]

Chain of psychLight S242A^5.46 (murinized variant) (P28223 with tags, fused parts or gaps S242A): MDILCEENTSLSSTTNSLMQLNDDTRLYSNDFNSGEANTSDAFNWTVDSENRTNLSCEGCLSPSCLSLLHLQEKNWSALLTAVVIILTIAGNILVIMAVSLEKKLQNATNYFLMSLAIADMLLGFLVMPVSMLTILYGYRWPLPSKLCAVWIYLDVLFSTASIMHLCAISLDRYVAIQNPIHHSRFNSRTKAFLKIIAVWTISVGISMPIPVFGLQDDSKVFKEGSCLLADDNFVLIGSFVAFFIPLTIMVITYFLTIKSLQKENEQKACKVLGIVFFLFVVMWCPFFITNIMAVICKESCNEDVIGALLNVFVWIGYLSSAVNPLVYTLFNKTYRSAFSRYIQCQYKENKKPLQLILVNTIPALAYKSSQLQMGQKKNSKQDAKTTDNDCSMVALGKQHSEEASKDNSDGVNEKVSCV
Chain of psychLight S242A^5.46 (murinized variant) (P42212 with tags, fused parts or gaps partner): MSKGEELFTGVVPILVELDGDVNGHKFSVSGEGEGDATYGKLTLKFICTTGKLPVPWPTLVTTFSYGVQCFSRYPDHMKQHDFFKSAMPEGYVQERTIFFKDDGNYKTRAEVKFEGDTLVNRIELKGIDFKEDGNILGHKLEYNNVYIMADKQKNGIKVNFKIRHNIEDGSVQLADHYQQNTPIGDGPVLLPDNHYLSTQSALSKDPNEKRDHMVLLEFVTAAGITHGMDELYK

With `CCN(CC)C(=O)[C@@H]1C=C2c3cccc4ccn(c34)C[C@H]2N(C)C1` [(+)-JRT], the EC50 came out at 39 nM in assay [1] (psychLight (S242A^5.46): EC50, agonist mode) and 473 nM in assay [1] (psychLight (S242A^5.46): EC50, antagonist mode, cotreated with 10 μM serotonin (5-HT + compound)). For the same compound, the Emax in assay [1] (read-out: psychLight (S242A^5.46): EMax) stood at 32%. Further, the “Locomotion (Figure 11A Females)” value in the assay on C57BL/6J mice (female mice, VEH + VEH 101.9 ± 15.04) stood at 217.2 ± 47.70. In addition, the “Locomotion (Figure 11A Males)” value in the assay with C57BL/6J mice (male mice, VEH + VEH 59.80 ± 4.206) is on record as 361.2 ± 35.54.

As a reminder, the EC50 is the midpoint of the concentration-response curve. What is called Emax is the greatest response seen or fitted, relative to the assay's reference.
